Experimental data published in paper PMC11234460, “In Silico Discovery of Stapled Peptide Inhibitor Targeting the Nur77‐PPARγ Interaction and Its Anti‐Breast‐Cancer Efficacy” (Advanced Science, 2024).
Where a SMILES comes first, the peptide text is derived from it. Bridges are numbered along the chain shown (N, C = ends). [ ]: non-standard residue; d: D form. S5 = C=CCCC[C@](C)(N)C(=O)O

Tests used:
[1] = tested on: mutated Nur77-EGFP (Gln571, Glu398, Phe598); test: MST with mutated Nur77-EGFP in HEK293T cell lysate; type: binding; conditions: Nur77 mutated at Gln571, Glu398 and Phe598, Monolith NT.115, 40% MST power
Procedure: The MST measure for the affinity of the peptide with purified Nur77 LBD protein was performed by Dianthus (Nano Temper). First, 1 × 10^−5 M protein was labeled with fluorescent dye and incubated with variable concentrations (0.1/0.4/0.8/1.6/3.1/6.3/12.5/25/50/100 × 10^−6 M) of peptides in PBST (containing 0.05% Tween‐20) (v/v, 10 µL: 10 µL). Incubated at room temperature away from light for 20 min, the mixture was loaded into the capillary and scanned. The MST measure for the affinity of the peptide with mutated Nur77‐EGFP was performed by Monolith NT.115 (Nano Temper). The HEK293T cell lysate was collected after transfection with the mutated Nur77‐EGFP plasmid for 48 h. The level of mutated Nur77‐EGFP was verified by the detection of fluorescence intensity. Different concentrations (0.1/0.4/0.8/1.6/3.1/6.3/12.5/25/50/100 × 10^−6 M) of ST‐CY14 were mixed with the cell lysate (v/v, 5 µL:5 µL) and incubated for 20 min. The measurement was carried out at 40% MST power.

Nur77-LBD = biological target: T1, Nur77-LBD (Homo sapiens, UniProt P22736); test: Surface plasmon resonance (SPR), Biacore T200; type: binding; conditions: read-out: ka (SPR)
T1 construct: The LBD fragment of human Nur77 (residues 351–598), tagged with an N‐terminal His6‐tag; His6 (N); made in house; host or cells: Escherichia coli BL21(DE3)
Procedure: ST‐CY14 with Nur77‐LBD was detected by SPR using the Biacore T200 system at 25 °C. Recombinant human Nur77‐LBD protein was immobilized on an activated carboxymethylated 5 sensor chip (GE Healthcare) using the amine coupling method. Gradient concentrations of […] were injected at a flow rate of 30 µL min^−1 in a running buffer (1% DMSO in PBS). The results were analyzed with Biacore evaluation software (T200 version 2.0). The data were fitted to the 1:1 Langmuir binding model, and kinetic parameters were derived.

MCF7 cells [2] = test: Cell viability assay (CCK-8); type: cell-based, human; conditions: MCF7, 5 × 10^−6 M, 24 h
Procedure: (§1) MCF7, MDA‐MB‐231, and MDA‐BoM‐1833 cells (5000 cells/well) were seeded in 96‐well plates and cultured overnight at 37°C and 5% CO2. The cells were then treated with fresh basic medium containing various concentrations (1/2/5/10/20 × 10^−6 M) of compounds. After 24 h of incubation, the cells were incubated with a basic medium containing 10% Cell Counting Kit‐8 (Dojindo, CK‐04) for 2 h. Cell viability was evaluated by measuring the absorbance at 450 nm. The formula used was [(As‐Ab)/(Ac‐Ab)] × 100%, where as represents the absorbance of the drug‐treated group, Ac represents the absorbance of the control group treated with medium, and Ab represents the absorbance of the blank control containing only medium.

[3] = tested on: Nur77-knockdown MCF7 and MDA-MB-231 cells; test: Cell viability assay (CCK-8), Nur77-knockdown breast tumor cells; type: cell-based; conditions: Nur77-knockdown MCF7 and MDA-MB-231, 24 h
Procedure: Cells were seeded 24 h prior to transfection. Transfection was performed with Transfect‐Mate (GenePharma, G04009) according to the manufacturer's protocols. To transfect siRNA into cells seeded on 6 well cell culture plates, 150 pmol of siRNA was mixed with 8 µL Transfect‐Mate, incubated at room temperature for 15 min, and then added to the cells. The medium was changed to DMEM after 6 h of culture, and the cells were incubated at 37 °C in a 5% CO2 incubator. 48 h later, the siRNA was successfully expressed and could be used for further experiments. The siRNAs used were listed in Table S1 (Supporting Information).

MCF7 cells [4] = test: Scratch (wound-healing) assay; type: cell-based, human; conditions: MCF7, 12 h
Procedure: MCF7 and MDA‐MB‐231 cells were seeded in 6‐well plates and cultured overnight. Once the cell density reached 90%, a line was scratched along the center of the 6‐well plate and images were taken randomly in the scratch domain under a microscope. The cells in each well were then treated with peptides of varying concentrations for 12 h, after which images were taken again in the scratch domain. The formula used to calculate the scratch healing rate was as follows: Scratch healing rate (%) = [(Scratch area at 0 h – Scratch area at 12 h) […] Scratch area at 0 h] × 100%.

[5] = tested on: MDA-MB-231-GFP tumor tissue; test: LC/MS targeted lipid metabolome of xenograft tumor tissue; type: in vivo, mouse; conditions: compared with the control group
Procedure: To establish the bone metastasis tumor model, 1×10^5 cells were injected into the left ventricle of each mouse (7–8 weeks old), and surgery was monitored using a cardiac ultrasound instrument. The mice were randomly divided into three groups and treated with PBS (control group, n = 6), 5 mg kg^−1 ST‐CY14 (n = 6), and 10 mg kg^−1 ST‐CY14 (n = 6) Tumor cell metastasis was monitored using an in vivo imaging instrument (IVIS Spectrum, PerkinElmer, USA). by intraperitoneal injection of 20 mg kg^−1 D‐luciferin. The mice were treated with ST‐CY14 via intravenous injection using a 100 µL PBS solution every 2 days starting on the designated day after tumor cell injection. Bone tissue with MDA‐BoM‐1833 cell metastasis was obtained and stained for TRAP. The mice sera were collected and analyzed for BSP and β‐CTx levels using ELISA (Lengton, BPE10823, BPE10438). For the orthotopic xenograft tumor model, 3×10^6 cells were injected into the fourth pair of breast pads on the left side of the mouse (4–5 weeks old). The mice were treated with ST‐CY14 every two days once the tumor volume reached 30–50 mm^3, with the same groups as in the bone metastasis tumor model. […]

MCF-10A cells = conditions: 24 h, CCK-8
Procedure: as §1

T1 sequence (P22736 351-598): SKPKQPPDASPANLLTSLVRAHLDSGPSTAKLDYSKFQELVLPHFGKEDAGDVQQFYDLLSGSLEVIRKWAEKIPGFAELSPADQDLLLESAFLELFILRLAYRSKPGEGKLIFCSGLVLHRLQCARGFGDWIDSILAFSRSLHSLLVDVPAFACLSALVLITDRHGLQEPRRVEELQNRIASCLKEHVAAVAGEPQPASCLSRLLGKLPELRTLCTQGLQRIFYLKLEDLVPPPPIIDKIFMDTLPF

In the case of `C[C@@H](O)[C@@H]1NC(=O)[C@H](CCCNC(=N)N)NC(=O)[C@H](CCCNC(=N)N)NC(=O)[C@@](C)(NC(=O)[C@H](Cc2ccccc2)NC(=O)CNC(=O)[C@H](CCCCN)NC(=O)[C@H](CS)NC(=O)CNC(=O)[C@H](CCC(=O)O)NC(=O)[C@@H](N)CS)CCCC=CCCC[C@@](C)(C(=O)N[C@@H](CCCNC(=N)N)C(=O)N[C@@H](Cc2ccc(O)cc2)C(=O)N[C@@H](Cc2ccc(O)cc2)C(=O)NCC(=O)N[C@@H](CCCNC(=N)N)C(=O)N[C@@H](CCCCN)C(=O)N[C@@H](CCCCN)C(=O)N[C@@H](CCCNC(=N)N)C(=O)N[C@@H](CCCNC(=N)N)C(=O)N[C@@H](CCC(N)=O)C(=O)N[C@@H](CCCNC(=N)N)C(=O)N[C@@H](CCCNC(=N)N)C(=O)N[C@@H](CCCNC(=N)N)C(N)=O)NC1=O` [ST-CY14] (H-CEGCKGF[S5]RRT[S5]RYYGRKKRRQRRR-NH2; staple 8-12), the “Interaction with mutated Nur77 (MST)” value [1] is reported as “disrupted the interaction”, the kon (Nur77-LBD) is reported as 1.6e+06 M⁻¹ s⁻¹ and the “Cell viability / proliferation” value (MCF7 cells [2]) is reported as “significantly attenuated breast tumor cell proliferation”. For the same compound, the “Sensitivity of Nur77-knockdown breast tumor cells” value [3] was “less sensitive to ST‐CY14”, the Scratch healing (MCF7 cells [4]) was “suppressed the scratch healing” and the “Relative abundance of lipid content (FA, PC, TAG, PE) in tumor tissue” value [5] was “decreased”. The “Sensitivity of normal breast cells” value (MCF-10A cells) was “less sensitive to ST‐CY14”.
